Source: patent publication US5137913A, “Diaryl ether cyclic ethers” (Imperial Chemical Industries PLC, priority 1989, dated 1992)

Assays:
[1] = tested on: 5-LO (LTB4); experiment: Ex vivo assay: administration of compound, blood collection, challenge with A23187, LTB4 radioimmunoassay (test c); assay type: in vivo; conditions: oral
Protocol: c) An ex vivo assay system, which is a variation of test b) above, involving administration of a test compound (usually orally as the suspension produced when a solution of the test compound in dimethylsulphoxide is added to carboxymethylcellulose), blood collection, heparinisation, challenge with A23187 and radioimmunoassay of LTB4 and TxB2. This test provides an indication of the bioavailability of a test compound as an inhibitor of 5-LO or cyclooxygenase.

[2] = tested on: 5-LO (LTB4) in heparinised human blood; experiment: In vitro heparinised human blood challenged with A23187, LTB4 radioimmunoassay (test b); assay type: cell-based
Protocol: b) An in vitro assay system involving incubating a test compound with heparinised human blood, prior to challenge with the calcium ionophore A23187 and then indirectly measuring the inhibitory effects on 5-LO by assaying the amount of LTB4 using the specific radioimmunoassay described by Carey and Forder (F. Carey and R. A. Forder, Brit. J. Pharmacol. 1985, 84, 34P) which involves the use of a protein-LTB4 conjugate produced using the procedure of Young et alia (Prostaglandins, 1983, 26(4), 605-613). The effects of a test compound on the enzyme cyclooxygenase (which is involved in the alternative metabolic pathway for arachidonic acid and gives rise to prostaglandins, thromboxanes and related metabolites) may be measured at the same time using the specific radioimmunoassay for thromboxane B2 (TxB2) described by Carey and Forder (see above). This test provides an indication of the effects of a test compound against 5-LO and also cyclooxygenase in the presence of blood cells and proteins. It permits the selectivity of the inhibitory effect on 5-LO or cyclooxygenase to be assessed.

- IC50 [2]: 0.5 µM
SMILES: CCC1(c2cccc(Sc3ccc4ccccc4c3)c2)COC(C)(C)O1 (centres unmarked) [Example 1, 4-ethyl-2,2-dimethyl-4-[3-(naphth-2-ylthio)phenyl]-1,3-dioxolane]
- ED50 [1]: 3 mg/kg
